Legend:
Cytochrome P450 3A4 = Cytochrome P450 3A4 (Homo sapiens, UniProt P08684); conditions: bti-tn-5b1-4; note: in other assays of this panel Not Active means under 50% inhibition at 10 µM
[1] = target: T1, Neuropeptide Y receptor type 2 (Homo sapiens, UniProt P49146); format: cell membranes, Membrane; conditions: kan-ts; note: in other assays of this panel Not Active means under 50% inhibition at 10 µM
T1 sequence (P49146 whole entry): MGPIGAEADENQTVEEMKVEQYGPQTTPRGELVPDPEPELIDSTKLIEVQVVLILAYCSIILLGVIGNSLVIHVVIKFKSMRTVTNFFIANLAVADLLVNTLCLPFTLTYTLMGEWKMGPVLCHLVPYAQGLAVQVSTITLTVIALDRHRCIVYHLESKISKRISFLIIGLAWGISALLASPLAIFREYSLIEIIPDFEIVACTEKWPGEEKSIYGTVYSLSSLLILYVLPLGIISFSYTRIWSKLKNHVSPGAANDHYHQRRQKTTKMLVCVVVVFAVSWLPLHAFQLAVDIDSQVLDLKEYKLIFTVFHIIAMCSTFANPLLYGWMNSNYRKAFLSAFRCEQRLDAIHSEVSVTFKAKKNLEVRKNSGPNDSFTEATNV

[2] = target: Aldo-keto reductase family 1 member B1 (Rattus norvegicus, UniProt P07943); format: tissue-based, Lens of camera-type eye;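 note: inhibition of aldose reductase enzyme activity, measured with DL-glyceraldehyde as the substrate; in other assays of this panel Not Active means under 50% inhibition at 10 µM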
Substance-P receptor = Substance-P receptor (Homo sapiens, UniProt P25103); format: cell membranes, CHO, Membrane; conditions: cho; note: in other assays of this panel Not Active means under 50% inhibition at 10 µM
[3] = DRUGMATRIX: Imidazoline I2, Central radioligand binding (ligand: [3H] Idazoxan); format: cell membranes, Rattus norvegicus, Wistar, Cerebral cortex, Membrane; conditions: Not Active = under 50% inhibition at 10 µM
[4] = DRUGMATRIX: Glutamate, NMDA, Phencyclidine radioligand binding (ligand: [3H] TCP); format: cell membranes, Rattus norvegicus, Wistar, Cerebral cortex, Membrane; conditions: Not Active = under 50% inhibition at 10 µM
Adenosine receptor A1 = target: T2, Adenosine receptor A1 (Homo sapiens, UniProt P30542); format: cell membranes, CHO, Membrane; conditions: cho
T2 sequence (P30542 whole entry): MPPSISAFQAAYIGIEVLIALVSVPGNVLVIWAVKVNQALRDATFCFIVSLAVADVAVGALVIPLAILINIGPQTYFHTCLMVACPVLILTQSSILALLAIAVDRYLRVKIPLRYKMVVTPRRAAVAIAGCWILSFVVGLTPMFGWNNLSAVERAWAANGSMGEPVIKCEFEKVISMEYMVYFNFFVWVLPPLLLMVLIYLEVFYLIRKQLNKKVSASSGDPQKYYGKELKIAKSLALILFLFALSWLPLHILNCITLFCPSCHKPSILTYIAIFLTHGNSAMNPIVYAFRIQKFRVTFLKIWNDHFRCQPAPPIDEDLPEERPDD

[5] = target: T3, C-X-C chemokine receptor type 2 (Homo sapiens, UniProt P25025); format: cell membranes, Membrane; conditions: cho-k1; note: in other assays of this panel Not Active means under 50% inhibition at 10 µM
T3 sequence (P25025 whole entry): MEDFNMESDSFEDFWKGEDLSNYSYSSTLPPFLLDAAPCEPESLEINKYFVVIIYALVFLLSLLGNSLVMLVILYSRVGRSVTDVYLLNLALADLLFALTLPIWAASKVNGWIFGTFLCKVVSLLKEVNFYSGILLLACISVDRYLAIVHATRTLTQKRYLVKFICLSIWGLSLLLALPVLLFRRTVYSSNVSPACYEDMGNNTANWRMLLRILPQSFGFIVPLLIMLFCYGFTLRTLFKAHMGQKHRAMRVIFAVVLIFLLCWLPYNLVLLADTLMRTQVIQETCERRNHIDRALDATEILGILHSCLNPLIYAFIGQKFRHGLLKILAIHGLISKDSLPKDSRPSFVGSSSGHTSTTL

D(3) dopamine receptor = D(3) dopamine receptor (Homo sapiens, UniProt P35462); experiment: DRUGMATRIX: Dopamine D3 radioligand binding (ligand: [3H] Spiperone); format: cell membranes, CHO, Membrane; conditions: cho
[6] = DRUGMATRIX: Platelet-Derived Growth Factor (PDGF) radioligand binding (ligand: [125I] PDGF); format: cell-based; conditions: nih3t3; Not Active = under 50% inhibition at 10 µM
[7] = DRUGMATRIX: Phosphodiesterase PDE3 enzyme inhibition (substrate: [3H]cAMP + cAMP); format: tissue-based, Homo sapiens; conditions: platelet; Not Active = under 50% inhibition at 10 µM
Melanocortin receptor 4 = Melanocortin receptor 4 (Homo sapiens, UniProt P32245); format: cell membranes, Membrane; conditions: hek293; note: in other assays of this panel Not Active means under 50% inhibition at 10 µM
Histamine H2 receptor = Histamine H2 receptor (Homo sapiens, UniProt P25021); format: cell membranes, CHO-K1, Membrane; conditions: cho-k1; note: in other assays of this panel Not Active means under 50% inhibition at 10 µM
[8] = target: 5-hydroxytryptamine receptor 1B (Rattus norvegicus, UniProt P28564); format: cell membranes, Wistar, Cerebral cortex, Membrane; note: in other assays of this panel Not Active means under 50% inhibition at 10 µM
[9] = DRUGMATRIX: GABAA, Chloride Channel, TBOB radioligand binding (ligand: [3H] TBOB); format: cell membranes, Rattus norvegicus, Wistar, Cerebral cortex, Membrane; conditions: Not Active = under 50% inhibition at 10 µM
[10] = DRUGMATRIX: Glutamate, NMDA, Agonism radioligand binding (ligand: [3H] CGP-39653); format: cell membranes, Rattus norvegicus, Wistar, Cerebral cortex, Membrane; conditions: Not Active = under 50% inhibition at 10 µM
Estrogen receptor = target: T4, Estrogen receptor (Homo sapiens, UniProt P03372); conditions: sf9; note: in other assays of this panel Not Active means under 50% inhibition at 10 µM
T4 sequence (P03372 whole entry): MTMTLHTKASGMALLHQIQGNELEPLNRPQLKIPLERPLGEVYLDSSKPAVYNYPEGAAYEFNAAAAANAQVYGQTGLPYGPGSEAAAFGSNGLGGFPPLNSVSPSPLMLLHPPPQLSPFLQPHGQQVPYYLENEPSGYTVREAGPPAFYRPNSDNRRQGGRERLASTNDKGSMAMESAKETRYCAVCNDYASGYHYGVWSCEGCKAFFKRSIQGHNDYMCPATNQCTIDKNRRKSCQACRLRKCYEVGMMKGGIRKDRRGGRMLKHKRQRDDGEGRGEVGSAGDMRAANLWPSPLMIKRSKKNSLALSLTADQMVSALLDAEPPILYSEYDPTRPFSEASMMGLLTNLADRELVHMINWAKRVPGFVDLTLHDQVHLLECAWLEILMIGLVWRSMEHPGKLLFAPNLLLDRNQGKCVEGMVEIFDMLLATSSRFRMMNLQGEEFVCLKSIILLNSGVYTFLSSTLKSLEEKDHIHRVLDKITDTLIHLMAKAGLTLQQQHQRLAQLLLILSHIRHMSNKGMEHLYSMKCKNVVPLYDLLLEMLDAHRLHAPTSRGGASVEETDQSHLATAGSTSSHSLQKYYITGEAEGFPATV

5-hydroxytryptamine receptor 1B, sequence (P28564 whole entry): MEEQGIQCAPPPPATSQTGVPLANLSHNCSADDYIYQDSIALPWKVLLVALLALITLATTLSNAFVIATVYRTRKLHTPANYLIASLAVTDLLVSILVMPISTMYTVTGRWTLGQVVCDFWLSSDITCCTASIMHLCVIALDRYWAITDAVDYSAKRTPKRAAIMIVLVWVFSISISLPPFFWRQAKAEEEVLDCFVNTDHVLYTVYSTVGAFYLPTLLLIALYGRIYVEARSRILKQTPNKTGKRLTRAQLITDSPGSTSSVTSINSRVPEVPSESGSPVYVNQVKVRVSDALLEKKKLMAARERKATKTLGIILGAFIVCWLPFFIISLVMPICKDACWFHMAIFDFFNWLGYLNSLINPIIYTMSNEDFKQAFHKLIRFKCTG
Cytochrome P450 3A4, sequence (P08684 whole entry): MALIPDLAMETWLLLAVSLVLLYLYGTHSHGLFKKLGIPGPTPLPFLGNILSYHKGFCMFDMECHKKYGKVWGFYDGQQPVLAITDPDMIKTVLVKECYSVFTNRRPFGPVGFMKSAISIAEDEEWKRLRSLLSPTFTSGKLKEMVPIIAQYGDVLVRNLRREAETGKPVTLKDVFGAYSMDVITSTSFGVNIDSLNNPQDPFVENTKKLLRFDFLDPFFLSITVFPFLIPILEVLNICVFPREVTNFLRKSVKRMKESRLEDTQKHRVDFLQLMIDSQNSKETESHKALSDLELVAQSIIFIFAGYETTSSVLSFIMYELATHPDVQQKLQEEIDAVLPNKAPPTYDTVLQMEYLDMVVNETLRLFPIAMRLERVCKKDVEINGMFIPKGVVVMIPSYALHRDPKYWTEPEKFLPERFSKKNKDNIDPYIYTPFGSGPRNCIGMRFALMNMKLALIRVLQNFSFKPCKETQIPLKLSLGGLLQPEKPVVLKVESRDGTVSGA
D(3) dopamine receptor, sequence (P35462 whole entry): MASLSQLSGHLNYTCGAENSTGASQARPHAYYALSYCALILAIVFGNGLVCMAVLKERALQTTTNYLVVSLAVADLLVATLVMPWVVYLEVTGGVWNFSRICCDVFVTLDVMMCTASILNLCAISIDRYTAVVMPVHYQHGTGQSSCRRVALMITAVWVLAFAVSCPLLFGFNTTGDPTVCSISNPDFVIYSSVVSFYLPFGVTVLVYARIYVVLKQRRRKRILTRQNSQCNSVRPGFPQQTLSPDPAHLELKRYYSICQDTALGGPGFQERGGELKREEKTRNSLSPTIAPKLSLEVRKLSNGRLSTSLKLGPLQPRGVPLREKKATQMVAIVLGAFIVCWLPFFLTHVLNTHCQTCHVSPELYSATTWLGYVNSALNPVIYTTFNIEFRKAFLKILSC
Melanocortin receptor 4, sequence (P32245 whole entry): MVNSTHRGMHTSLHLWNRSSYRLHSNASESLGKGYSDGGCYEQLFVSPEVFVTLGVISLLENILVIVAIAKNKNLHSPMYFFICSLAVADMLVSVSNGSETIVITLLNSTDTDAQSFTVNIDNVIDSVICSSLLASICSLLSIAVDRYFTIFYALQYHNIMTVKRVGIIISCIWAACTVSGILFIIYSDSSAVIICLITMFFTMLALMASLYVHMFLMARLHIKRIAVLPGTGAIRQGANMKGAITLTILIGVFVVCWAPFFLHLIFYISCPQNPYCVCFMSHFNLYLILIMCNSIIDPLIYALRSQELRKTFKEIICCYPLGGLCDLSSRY
Substance-P receptor, sequence (P25103 whole entry): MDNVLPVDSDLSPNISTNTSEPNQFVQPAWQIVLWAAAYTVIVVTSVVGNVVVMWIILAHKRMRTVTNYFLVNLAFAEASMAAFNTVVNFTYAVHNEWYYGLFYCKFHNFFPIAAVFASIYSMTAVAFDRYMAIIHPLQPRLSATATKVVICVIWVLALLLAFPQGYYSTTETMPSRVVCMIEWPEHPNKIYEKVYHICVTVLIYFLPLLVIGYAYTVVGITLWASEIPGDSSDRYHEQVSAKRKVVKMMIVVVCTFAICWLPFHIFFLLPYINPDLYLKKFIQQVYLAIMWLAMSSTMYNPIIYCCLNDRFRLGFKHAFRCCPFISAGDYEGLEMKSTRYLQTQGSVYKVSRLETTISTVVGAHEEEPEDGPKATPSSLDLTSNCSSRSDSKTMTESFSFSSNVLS
Histamine H2 receptor, sequence (P25021 whole entry): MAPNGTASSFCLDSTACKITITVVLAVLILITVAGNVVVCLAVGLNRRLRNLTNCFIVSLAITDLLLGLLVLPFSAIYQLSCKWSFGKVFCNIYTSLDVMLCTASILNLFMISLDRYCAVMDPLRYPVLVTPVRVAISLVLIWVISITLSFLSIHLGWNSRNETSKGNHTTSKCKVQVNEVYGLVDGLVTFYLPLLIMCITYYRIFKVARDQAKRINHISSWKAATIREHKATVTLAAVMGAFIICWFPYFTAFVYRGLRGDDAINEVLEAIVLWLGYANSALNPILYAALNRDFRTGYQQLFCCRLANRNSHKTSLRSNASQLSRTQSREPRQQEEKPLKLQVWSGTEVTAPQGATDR

CC(=O)CCCCn1c(=O)c2c(ncn2C)n(C)c1=O [PENTOXIFYLLINE]
Not Active: IC50 (Cytochrome P450 3A4) | Ki (Cytochrome P450 3A4) | IC50 [1] | IC50 [2] | IC50 (Substance-P receptor) | IC50 [3] | Ki [3] | IC50 [4] | Ki [4] | IC50 (Adenosine receptor A1) | IC50 [5] | IC50 (D(3) dopamine receptor) | IC50 [6] | Ki [6] | IC50 [7] | Ki [7] | IC50 (Melanocortin receptor 4) | IC50 (Histamine H2 receptor) | IC50 [8] | IC50 [9] | Ki [9] | IC50 [10] | Ki [10] | IC50 (Estrogen receptor)

Nc1nc(=O)[nH]cc1F [FLUCYTOSINE]
Not Active: IC50 (Cytochrome P450 3A4) | Ki (Cytochrome P450 3A4) | IC50 [1] | IC50 [2] | IC50 (Substance-P receptor) | IC50 [3] | Ki [3] | IC50 [4] | Ki [4] | IC50 (Adenosine receptor A1) | IC50 [5] | IC50 (D(3) dopamine receptor) | IC50 [6] | Ki [6] | IC50 [7] | Ki [7] | IC50 (Melanocortin receptor 4) | IC50 (Histamine H2 receptor) | IC50 [8] | IC50 [9] | Ki [9] | IC50 [10] | Ki [10] | IC50 (Estrogen receptor)

C=C1[C@@H]2CCC3[C@@](CC[C@@H]4[C@H](C(=O)O)C[C@@H](O[C@@H]5O[C@H](CO)[C@@H](OS(=O)(=O)[O-])[C@H](OS(=O)(=O)[O-])[C@H]5OC(=O)CC(C)C)C[C@@]34C)(C2)[C@@H]1O.[K+].[K+] (stereo partly specified) [ATRACTYLOSIDE]
Not Active: IC50 (Cytochrome P450 3A4) | Ki (Cytochrome P450 3A4) | IC50 [1] | IC50 [2] | IC50 (Substance-P receptor) | IC50 [3] | Ki [3] | IC50 [4] | Ki [4] | IC50 (Adenosine receptor A1) | IC50 [5] | IC50 (D(3) dopamine receptor) | IC50 [6] | Ki [6] | IC50 [7] | Ki [7] | IC50 (Melanocortin receptor 4) | IC50 (Histamine H2 receptor) | IC50 [8] | IC50 [9] | Ki [9] | IC50 [10] | Ki [10] | IC50 (Estrogen receptor)

Cn1cnc([N+](=O)[O-])c1Sc1ncnc2nc[nH]c12 [AZATHIOPRINE]
Not Active: IC50 (Cytochrome P450 3A4) | Ki (Cytochrome P450 3A4) | IC50 [1] | IC50 [2] | IC50 (Substance-P receptor) | IC50 [3] | Ki [3] | IC50 [4] | Ki [4] | IC50 (Adenosine receptor A1) | IC50 [5] | IC50 (D(3) dopamine receptor) | IC50 [6] | Ki [6] | IC50 [7] | Ki [7] | IC50 (Melanocortin receptor 4) | IC50 (Histamine H2 receptor) | IC50 [8] | IC50 [9] | Ki [9] | IC50 [10] | Ki [10] | IC50 (Estrogen receptor)

From ChEMBL document CHEMBL1909046, “DrugMatrix in vitro pharmacology data”
